Assay results published in patent US11319299B2, “Substituted carboxamides as inhibitors of WDR5 protein-protein binding” (PROPELLON THERAPEUTICS INC., priority 2016, dated 2022).
pKd: −log10 of the molar value.

Target: WDR5 (Homo sapiens (Human), UniProt P61964)
Test: Surface Plasmon Resonance (SPR) assay, KD and residence time
Format: binding
Conditions: surface plasmon resonance (SPR); read-out: WDR5 binding affinity (KD)

Row | Compound | pKd
1 | CC1CN(c2cc(F)c(-c3ccc(N4CCOCC4)c(F)c3)cc2NC(=O)c2cn(C)c(=O)cc2C(F)F)CCN1C (stereo in doubt) [Example 478, 4-(difluoromethyl)-N-[4-fluoro-5-(3-fluoro-4-morpholin-4-ylphenyl)-2-[(3R)-3,4-dimethylpiperazin-1-yl]phenyl]-1-methyl-6-oxopyridine-3-carboxamide] | 8.27
2 | CC1CN(c2ccc(-c3cc(NC(=O)c4cn(C)c(=O)cc4C(F)F)c(N4C[C@@H](C)N(C)[C@@H](C)C4)cc3F)cn2)CCO1 (stereo in doubt) [Example 517, 4-(Difluoromethyl)-N-[4-fluoro-5-[6-[(2R)-2-methylmorpholin-4-yl]pyridin-3-yl]-2-[(3S,5R)-3,4,5-trimethylpiperazin-1-yl]phenyl]-1-methyl-6-oxopyridine-3-carboxamide] | 8.22
3 | CC1CN(c2cc(F)c(-c3ccc(N4CCNCC4)nc3)cc2NC(=O)c2ccc(F)cc2C(F)(F)F)CCN1C (stereo in doubt) [Example 530, 4-fluoro-N-[4-fluoro-5-(6-piperazin-1-ylpyridin-3-yl)-2-[(3R)-3,4-dimethylpiperazin-1-yl]phenyl]-2-(trifluoromethyl)benzamide] | 8.67
4 | CC1CN(c2cc(F)c(-c3ccc(F)c(C(N)=O)c3)cc2NC(=O)c2ccc(F)cc2C(F)(F)F)CCN1C (stereo in doubt) [Example 554, 2-fluoro-5-[2-fluoro-5-[[4-fluoro-2-(trifluoromethyl)benzoyl]amino]-4-[(3R)-3,4-dimethylpiperazin-1-yl]phenyl]benzamide] | 8.28
5 | CC1CN(c2cc(F)c(-c3ccc(C(N)=O)c(F)c3)cc2NC(=O)c2ccc(F)cc2C(F)(F)F)CCN1C (stereo in doubt) [Example 555, 2-fluoro-4-[2-fluoro-5-[[4-fluoro-2-(trifluoromethyl)benzoyl]amino]-4-[(3R)-3,4-dimethylpiperazin-1-yl]phenyl]benzamide] | 8.53
6 | CC1CN(c2cc(F)c(-c3cnc(N4CCN(C(C)(C)C)CC4)nc3)cc2NC(=O)c2ccc(F)cc2C(F)(F)F)CCN1C (stereo in doubt) [Example 557, N-[5-[2-(4-tert-butylpiperazin-1-yl)pyrimidin-5-yl]-4-fluoro-2-[(3R)-3,4-dimethylpiperazin-1-yl]phenyl]-4-fluoro-2-(trifluoromethyl)benzamide] | 8.96
7 | CC1CN(c2cc(F)c(-c3cnc(N4CCOC(C)(C)C4)nc3)cc2NC(=O)c2ccc(F)cc2C(F)(F)F)CCN1C (stereo in doubt) [Example 558, N-[5-[2-(2,2-dimethylmorpholin-4-yl)pyrimidin-5-yl]-4-fluoro-2-[(3R)-3,4-dimethylpiperazin-1-yl]phenyl]-4-fluoro-2-(trifluoromethyl)benzamide] | 8.42
8 | Cc1cc(C(=O)Nc2cc(-c3cnc(N4CCOC(C)C4)nc3)c(F)cc2N2C[C@@H](C)N(C)[C@@H](C)C2)cc(C)c1F (stereo in doubt) [Example 611, 4-fluoro-N-[4-fluoro-5-[2-[(2R)-2-methylmorpholin-4-yl]pyrimidin-5-yl]-2-[(3S,5R)-3,4,5-trimethylpiperazin-1-yl]phenyl]-3,5-dimethylbenzamide] | 8.81
9 | CC1CN(c2cc(F)c(-c3cnc(N4CCC(C)(O)CC4)nc3)cc2NC(=O)c2ccc(F)cc2C(F)(F)F)CCN1C (stereo in doubt) [Example 613, 4-fluoro-N-[4-fluoro-5-[2-(4-hydroxy-4-methylpiperidin-1-yl)pyrimidin-5-yl]-2-[(3R)-3,4-dimethylpiperazin-1-yl]phenyl]-2-(trifluoromethyl)benzamide] | 9.04
10 | CC1CN(c2cc(F)c(-c3ccnc(N4CCOCC4)n3)cc2NC(=O)c2ccc(F)cc2C(F)(F)F)CCN1C (stereo in doubt) [Example 614, 4-fluoro-N-[4-fluoro-5-(2-morpholin-4-ylpyrimidin-4-yl)-2-[(3R)-3,4-dimethylpiperazin-1-yl]phenyl]-2-(trifluoromethyl)benzamide] | 9.13
11 | CC1CN(c2cc(F)c(-c3csc(N4CCOCC4)n3)cc2NC(=O)c2cn(C)c(=O)cc2C(F)F)CCN1C (stereo in doubt) [Example 620, 4-(difluoromethyl)-N-[4-fluoro-5-(2-morpholin-4-yl-1,3-thiazol-4-yl)-2-[(3R)-3,4-dimethylpiperazin-1-yl]phenyl]-1-methyl-6-oxopyridine-3-carboxamide] | 8.38
12 | CC1CN(c2cc(F)c(-c3cc(C(=O)NC(C)(C)CC(C)(C)C)c(F)cc3F)cc2NC(=O)c2ccc(F)cc2C(F)(F)F)CCN1C (stereo in doubt) [Example 625, 2,4-difluoro-5-[2-fluoro-5-[[4-fluoro-2-(trifluoromethyl)benzoyl]amino]-4-[(3R)-3,4-dimethylpiperazin-1-yl]phenyl]-N-(2,4,4-trimethylpentan-2-yl)benzamide] | 6.76

Further lines, results first:

Row | pKd | Compound
13 | 7.60 | CC1CN(c2cc(F)c(-c3cnc(N4CCOCC4)nc3)cc2NC(=O)c2c[nH]c(=O)c(C(F)(F)F)c2)CCN1C (stereo in doubt) [Example 495, N-[4-fluoro-5-(2-morpholin-4-ylpyrimidin-5-yl)-2-[(3R)-3,4-dimethylpiperazin-1-yl]phenyl]-6-oxo-5-(trifluoromethyl)-1H-pyridine-3-carboxamide]
14 | 8.75 | C[C@@H]1CN(c2ccc(-c3cc(NC(=O)c4c[nH]c(=O)cc4C(F)F)c(N4CCN(C)[C@H](C)C4)cc3F)cn2)CCO1 (stereo in doubt) [Example 507, 4-(difluoromethyl)-N-[4-fluoro-2-[(3R)-3,4-dimethylpiperazin-1-yl]-5-[6-[(2R)-2-methylmorpholin-4-yl]pyridin-3-yl]phenyl]-6-oxo-1H-pyridine-3-carboxamide]
15 | 9.21 | CC1CN(c2ccc(-c3cc(NC(=O)c4c[nH]c(=O)cc4C(F)F)c(N4C[C@@H](C)N(C)[C@@H](C)C4)cc3F)cn2)CCO1 (stereo in doubt) [Example 510, 4-(difluoromethyl)-N-[4-fluoro-5-[6-[(2R)-2-methylmorpholin-4-yl]pyridin-3-yl]-2-[(3S,5R)-3,4,5-trimethylpiperazin-1-yl]phenyl]-6-oxo-1H-pyridine-3-carboxamide]
16 | 8.47 | C[C@@H]1CN(c2ccc(-c3cc(NC(=O)c4cn(C)c(=O)cc4C(F)F)c(N4CCN(C)[C@H](C)C4)cc3F)cn2)CCO1 (stereo in doubt) [Example 519, 4-(difluoromethyl)-N-[4-fluoro-2-[(3R)-3,4-dimethylpiperazin-1-yl]-5-[6-[(2R)-2-methylmorpholin-4-yl]pyridin-3-yl]phenyl]-1-methyl-6-oxopyridine-3-carboxamide]
17 | 8.93 | CC1CN(c2cc(F)c(-c3ccc(C(N)=O)c(F)c3)cc2NC(=O)c2c[nH]c(=O)cc2C(F)F)CCN1C (stereo in doubt) [Example 595, N-[5-(4-carbamoyl-3-fluorophenyl)-4-fluoro-2-[(3R)-3,4-dimethylpiperazin-1-yl]phenyl]-4-(difluoromethyl)-6-oxo-1H-pyridine-3-carboxamide]
18 | 8.39 | CC1CN(c2cc(F)c(-c3ccc(F)c(C(N)=O)c3)cc2NC(=O)c2c[nH]c(=O)cc2C(F)F)CCN1C (stereo in doubt) [Example 596, N-[5-(3-carbamoyl-4-fluorophenyl)-4-fluoro-2-[(3R)-3,4-dimethylpiperazin-1-yl]phenyl]-4-(difluoromethyl)-6-oxo-1H-pyridine-3-carboxamide]
19 | 9.15 | CNC(=O)c1ccc(-c2cc(NC(=O)c3c[nH]c(=O)cc3C(F)F)c(N3CCN(C)C(C)C3)cc2F)cc1F (stereo in doubt) [Example 597, 4-(difluoromethyl)-N-[4-fluoro-5-[3-fluoro-4-(methylcarbamoyl)phenyl]-2-[(3R)-3,4-dimethylpiperazin-1-yl]phenyl]-6-oxo-1H-pyridine-3-carboxamide]
20 | 8.82 | CNC(=O)c1cc(-c2cc(NC(=O)c3c[nH]c(=O)cc3C(F)F)c(N3CCN(C)C(C)C3)cc2F)ccc1F (stereo in doubt) [Example 598, 4-(difluoromethyl)-N-[4-fluoro-5-[4-fluoro-3-(methylcarbamoyl)phenyl]-2-[(3R)-3,4-dimethylpiperazin-1-yl]phenyl]-6-oxo-1H-pyridine-3-carboxamide]
21 | 8.38 | CC1CN(c2cc(F)c(-c3nccc(N4CCOCC4)n3)cc2NC(=O)c2c[nH]c(=O)cc2C(F)(F)F)CCN1C (stereo in doubt) [Example 599, N-[4-fluoro-5-(4-morpholin-4-ylpyrimidin-2-yl)-2-[(3R)-3,4-dimethylpiperazin-1-yl]phenyl]-6-oxo-4-(trifluoromethyl)-1H-pyridine-3-carboxamide]
22 | 8.82 | C[C@@H]1CN(c2cc(F)c(-c3cnc(N4CCOC[C@H]4C)nc3)cc2NC(=O)c2cn(C)c(=O)cc2C(F)F)CCN1C (stereo in doubt) [Example 607, 4-(difluoromethyl)-N-[4-fluoro-2-[(3R)-3,4-dimethylpiperazin-1-yl]-5-[2-[(3R)-3-methylmorpholin-4-yl]pyrimidin-5-yl]phenyl]-1-methyl-6-oxopyridine-3-carboxamide]
23 | 8.95 | CC1CN(c2cc(F)c(-c3cnc(N4CCOCC4)s3)cc2NC(=O)c2c[nH]c(=O)cc2C(F)(F)F)CCN1C (stereo in doubt) [Example 618, N-[4-fluoro-5-(2-morpholin-4-yl-1,3-thiazol-5-yl)-2-[(3R)-3,4-dimethylpiperazin-1-yl]phenyl]-6-oxo-4-(trifluoromethyl)-1H-pyridine-3-carboxamide]
24 | 8.32 | CC1CN(c2cc(F)c(-c3cnc(N4CCOCC4)s3)cc2NC(=O)c2cn(C)c(=O)cc2C(F)F)CCN1C (stereo in doubt) [Example 621, 4-(difluoromethyl)-N-[4-fluoro-5-(2-morpholin-4-yl-1,3-thiazol-5-yl)-2-[(3R)-3,4-dimethylpiperazin-1-yl]phenyl]-1-methyl-6-oxopyridine-3-carboxamide]
25 | 8.90 | C[C@@H]1CN(c2cc(F)c(-c3cnc(N4CCOC[C@H]4C)nc3)cc2NC(=O)c2c[nH]c(=O)cc2C(F)F)CCN1C (stereo in doubt) [Example 628, 4-(difluoromethyl)-N-[4-fluoro-2-[(3R)-3,4-dimethylpiperazin-1-yl]-5-[2-[(3R)-3-methylmorpholin-4-yl]pyrimidin-5-yl]phenyl]-6-oxo-1H-pyridine-3-carboxamide]
